Measured values taken from US9255088B2, “Premature-termination-codons readthrough compounds” (The Regents of the University of California, priority 2010, dated 2016).
Entries after “also recorded” stand apart in the source; their conditions may differ.

What was measured:
[1] = system: ATMs1981 autophosphorylation in AT153LA cells (TGA); assay: Flow cytometry ATMs1981 autophosphorylation (FC-ATM) in AT153LA cells; assay type: cell-based, human; parameters: FC-ATM (Delta-FI, 30 μM): unit not given here; conditions: for FCATMs1981: summary of positive results; for FCATMs1981: key: the positive results on various assays are also summarized and labeled as '+'
Experimental: FC-SMC1 assay was performed as recently described (Nahas et al., 2009). FC-ATM-Ser1981 assay was based on Honda's assay (Honda et al., 2009, Leukemia. 23:409-414) with modifications. In brief, cells were resuspended in PBS and radiated for 10 Gy. After 1 h, the cells were fixed and permeabilized using the FIX & PERM cell permeabilization kit (Invitrogen). The cells were then incubated with 1 μl of mouse ATM-Ser1981 antibody (Cell Signaling Technology) for 2 h at room temperature. Cells were washed and resuspended in 100 μl PBS with Alexa Fluor 488 anti-mouse IgG (Invitrogen) for 45 min. Cells were next washed and resuspended in PBS with 0.2% paraformaldehyde and analyzed using a FACSCalibur (BD).
Studies on readthrough activity of RTC#13 derivatives as measured by FC-ATMS 1981 were performed according to the procedures provided in Example 1.
These two series, 7 and 9, were tested for readthrough activity using an assay in which the ATM protein kinase activity was measured using a flow cytometry-based ATMs1981 autophosphorylation assay (FC-ATM) (Nahas, S. A; et al., Clin. Chem. 2009, 55, 463-72). […] An increased Delta-FI indicates the restoration of ATM kinase activity by a compound.
(§1) These two series, 13 and 15, were again tested for readthrough activity using the assay in which the ATM protein kinase activity was measured by functional flow cytometry (FC-ATM) (Table 4 and FIG. 12). A second assay, irradiation (1R)-induced ATMs1981 nuclear foci formation (IRIF-ATM), was also used to confirm the readthrough activity of these compounds (Table 4 and FIG. 13). Table 3 summarizes the data for the analogues 13 and 15 (at 30 μM), in which the groups R, R′, and X were varied. More detailed data are reported in FIG. 5 (for FC-ATM assay), and in FIG. 6 (for IRIF-ATM assay). […] Thus, the pyrimidinedione unit serves as a good structural replacement for the 2-imino and 2-thioxo thiazolidin-4-one units.

[2] = system: plasmid-TAT51: ATM region 5 fragment with nonsense (PTC) mutation c.5623C→T (TGA C); assay: PTT-ELISA readthrough assay, plasmid-TAT51 (TGA C); conditions: summary of positive results; plasmid not stated
[3] = system: ATM-Ser1981 foci in AT153LA cells (TGA A); assay: Irradiation-induced ATM-Ser1981 foci (IRIF) in AT153LA cells; for IRIF (ATMs1981): key: the positive results on various assays are also summarized and labeled as '+'; assay type: cell-based, human; conditions: for IR-induced ATMs1981 foci formation, readthrough activity: A-T153LA cells (TGA), FIG. 13; for IRIF-ATM (%) (30 μM): Table 4, IR-induced ATMs1981 nuclear foci formation; for IRIF (ATMs1981): summary of positive results
Experimental: To evaluate the function of RTC-induced ATM protein, we measured irradiation-induced foci (IRIF) formation of ATM-Ser1981 in the same ATI53LA cells (TGA A). […] The maximum IRIF induction achieved in A-T cells by 10 μM RTC#13 was ˜40% of wild-type level. As a positive readthrough control, 144 μM of G418 (100 μg/ml) was used to treat cells. Our previous studies had shown that, at this concentration, […] induced a maximum level of ATMs1981 IRIF (Lai et al., 2004).
Immunostaining of nuclear foci of ATM-Ser1981 was performed as previously reported (Du et al., 2007). In brief, after being treated with compound for 4 d, cells were irradiated with 2 Gy and incubated at 37° C. for 30 min. The cells were dropped onto coverslips, fixed with 4% paraformaldehyde, and permeabilized. Coverslips were blocked for 1 h and incubated with mouse anti-ATM pSer1981 for 1 h (1:500; Rockland Immunochemicals, Inc). After a second blocking, cells were stained with FITC-conjugated anti-mouse IgG (1:150; Jackson ImmunoResearch Laboratories) for 1 h and mounted onto slides.
Studies on IR-induced ATMs1981 foci formation by RTC#13 and derivatives 13a, 13b, 13d, 13e, 13f, 13g, 13h, 13i, 13j, and 13k in A-T153LA cells (TGA) were performed according to the procedures provided in Example 1.
as §1

[4] = system: dystrophin in mdx myotubes (TAA); assay: Dystrophin expression in mdx myotubes; assay type: cell-based, mouse; conditions: FIG. 21
Experimental: To investigate the ability of RTC#13 and #14 to readthrough a PTC mutation in genes other than ATM, we used mdx myotubes. The mdx mouse has been widely used as a model for Duchenne muscular dystrophy. It carries a C to T transition in exon 23 of the dystrophin gene that creates a premature stop codon (TAA), resulting in an absence of dystrophin protein (Sicinski, et al., 1989, Science. 244:1578-1580). […] Muscle progenitor cells isolated from mdx mice were induced to differentiate for 24 h before addition of gentamicin or compounds RTC#13 and #14. Myotube cultures were exposed to compounds for 72 h and then analyzed for dystrophin by Western blotting. […] We next used immunoprecipitation to increase the sensitivity of the assay (FIG. 8). […] Results were consistent in multiple experiments performed.
Cells were prepared and treated with RTCs for 3 d. Dystrophin proteins were detected by Western blot analysis using immunoprecipitation. Wild-type cells were used in the experiment to localize dystrophin protein. Gentamicin was used as a positive readthrough control. […] Results were consistent in three independent experiments.
Cells were derived from limb muscle of neonatal mdx and C57 mice, as previously described (Bertoni and Rando, 2002, Hum. Gene Ther. 13:707-718). For growth, cells were plated on dishes coated with 5 µg/ml laminin (Invitrogen) and maintained in growth medium consisting of Ham's F10 nutrient mixture (Mediatech, Inc.) supplemented with 20% fetal bovine serum, penicillin, and streptomycin. Cell differentiation was induced by maintaining the cells in low serum medium (differentiation medium) consisting of DME supplemented with 2% horse serum, penicillin, and streptomycin. Myoblasts were plated in wells of 6-well dishes and were allowed to differentiate for 24 h before adding the compounds. Media was replaced every 24 h with fresh differentiation media containing the compounds. Cells were lysed 96 h after induction of differentiation (72 h after addition of the compounds). Total protein was determined and dystrophin immunoblot analysis was performed as previously described (Sicinski et al., 1989). 250 μg of total protein from each sample was immunoprecipitated using a monoclonal antibody directed toward the rod domain (MANDYS—8; 1:40; Sigma-Aldrich) of the dystrophin protein and detected by Western blotting (Barton-Davis et al., 1999, J. Clin. Invest. 104:375-381; Bertoni and Rando, 2002).
Muscle cells were induced to differentiate to allow the formation of myotubes and synthesis of dystrophin mRNA. Compounds were added 24 hrs after induction of differentiation by direct addition into the media. The media was replaced every 24 hrs with fresh differentiation media containing the appropriate concentration of compounds. Myotubes were harvested 72 hrs later (96 hrs after induction of differentiation) and analyzed for dystrophin expression by immunoblot analysis (FIG. 14).
Cultures were analyzed for dystrophin expression by immunohistochemistry.
In the experiments shown in FIG. 21, the activity of two of the analogs of RTC#13 termed RTC#BZ6 and RTC#BZ16 was investigated in myotube cultures isolated from mdx mice. Compounds were added to the differentiation media 24 hrs after induction of differentiation and replaced every 24 hrs by changing the media with new fresh media containing the appropriate concentration of RTC#13, RTC#BZ6 or RTC#BZ16. […] No dystrophin expression was detected in cells treated with vehicle only at a final concentration of 10 μM.

[5] = cited from earlier work
[6] = Table 2, compounds 7, 30 µM, change in fluorescence intensity before and after ionizing radiation
[7] = Table 4, compounds 13 and 15, 30 μM

| SMILES | FC-ATM (Delta-FI, 30 μM) [1, 6] | PTT-ELISA [2] | FCATMs1981 [1] | IRIF-ATM (%) (30 μM) [3] | FC-ATM (Delta-FI, 30 μM) [1, 7] | also measured |
| --- | --- | --- | --- | --- | --- | --- |
| N=C1NC(=O)/C(=C/c2ccc(-c3ccccc3)o2)S1 [Compound 7a, (Z)-2-imino-5-((5-phenylfuran-2-yl)methylene)thiazolidin-4-one] | negative | + | – | – | – | – |
| O=C1NC(=S)S/C1=C\c1ccc(-c2ccccc2[N+](=O)[O-])o1 [Compound 7b, (Z)-5-((5-(2-nitrophenyl)furan-2-yl)methylene)-2-thioxothiazolidin-4-one] | negative | + | – | – | – | – |
| N=C1NC(=O)/C(=C/c2ccc(-c3ccccc3C(F)(F)F)o2)S1 [Compound 7d, (Z)-2-imino-5-((5-(2-(trifluoromethyl)phenyl)furan-2-yl)methylene)thiazolidin-4-one] | negative | + | – | – | – | – |
| COc1ccccc1-c1ccc(/C=C2\SC(=N)NC2=O)o1 [Compound 7e, (Z)-2-imino-5-((5-(2-methoxyphenyl)furan-2-yl)methylene)thiazolidin-4-one] | negative | + | – | – | – | – |
| N=C1NC(=O)/C(=C/c2ccc(-c3ccccc3Cl)o2)S1 [Compound 7f, (Z)-5-((5-(2-chlorophenyl)furan-2-yl)methylene)-2-iminothiazolidin-4-one] | negative | + | – | – | – | – |
| N=C1NC(=O)/C(=C/c2ccc(-c3cccc(F)c3)o2)S1 [Compound 7j, (Z)-5-((5-(3-fluorophenyl)furan-2-yl)methylene)-2-iminothiazolidin-4-one] | negative | + | – | – | – | – |
| O=C1NC(=S)S/C1=C\c1ccc(-c2ccccc2Cl)o1 [Compound 7m, (Z)-5-((5-(2-chlorophenyl)furan-2-yl)methylene)-2-thioxothiazolidin-4-one] | 3.55 | + | + | – | – | FC-ATM readthrough activity [1]: the best of this group |
| O=C1NC(=S)S/C1=C\c1ccc(-c2ccccc2F)o1 [Compound 7n, (Z)-5-((5-(2-fluorophenyl)furan-2-yl)methylene)-2-thioxothiazolidin-4-one] | 2.86 | + | + | – | – | – |
| O=C1NC(=S)S/C1=C\c1ccc(-c2cccc(F)c2)o1 [Compound 7q, (Z)-5-((5-(3-fluorophenyl)furan-2-yl)methylene)-2-thioxothiazolidin-4-one] | 3.44 | + | + | – | – | FC-ATM readthrough activity [1]: the best of this group |
| O=c1ccn(Cc2ccc(-c3ccccc3[N+](=O)[O-])o2)c(=O)[nH]1 [Compound 13a, 1-((5-(2-nitrophenyl)furan-2-yl)methyl)pyrimidine-2,4(1H,3H)-dione] | – | – | + | 10.67% | 4.94 | IR-induced ATMs1981 foci formation, readthrough activity [3]: statistically significant readthrough activity; concentration giving the highest level of readthrough activity [4]: 5 µM; dystrophin expression in mdx myotube cultures [4]: effective |
| N=C1NC(=O)/C(=C/c2cn(Cc3ccc(-c4ccccc4[N+](=O)[O-])o3)c(=O)[nH]c2=O)S1 [Compound 13j, (Z)-5-((2-imino-4-oxothiazolidin-5-ylidene)methyl)-1-((5-(2-nitrophenyl)furan-2-yl)methyl)pyrimidine-2,4(1H,3H)-dione] | – | – | + | 18% | 2.42 | IR-induced ATMs1981 foci formation, readthrough activity [3]: statistically significant readthrough activity; IRIF (ATMs1981) [3]: + |
| N=C1NC(=O)/C(=C/c2c[nH]c(=O)[nH]c2=O)S1 [Compound 13k, (Z)-5-((2-imino-4-oxothiazolidin-5-ylidene)methyl)pyrimidine-2,4(1H,3H)-dione] | – | – | + | 17% | 5.32 | IR-induced ATMs1981 foci formation, readthrough activity [3]: statistically significant readthrough activity; also recorded: good activity; IRIF (ATMs1981) [3]: +; FC-ATM readthrough activity [1]: good activity; dystrophin expression in mdx myotube cultures [4]: levels of dystrophin expression comparable to that achieved using the parent compound RTC#13 |
| N=c1ccn(Cc2ccc(-c3ccccc3[N+](=O)[O-])o2)c(=O)[nH]1 [Compound 15a, 4-imino-1-((5-(2-nitrophenyl)furan-2-yl)methyl)-3,4-dihydropyrimidin-2(1H)-one] | – | – | – | negative | negative | – |
| N=c1[nH]c(=O)n(Cc2ccc(-c3ccccc3[N+](=O)[O-])o2)cc1F [Compound 15b] | – | – | – | negative | negative | – |
| O=C(O)c1cccc(-c2noc(-c3ccccc3F)n2)c1 [PTC124] | – | – | – | – | – | tolerability ([5]; phase-I clinical study in cystic fibrosis): generally well tolerated; readthrough activity compared with aminoglycosides ([5]; phase-I clinical study): more efficient readthrough activity than aminoglycosides |
